Test results taken from patent US20220168328A1, “METHODS AND COMPOSITIONS FOR TREATING EUKARYOTIC INFECTIONS VIA ALTERING AGGREGATION DYNAMICS OF RAPTOR/KOG1” (ARIZONA BOARD OF REGENTS ON BEHALF OF THE UNIVERSITY OF …, priority 2014, published 2022).

Columns and labels:
ringworm = test: Patient with ringworm treated with topical AICAR (Example 2); type: in vivo, human; settings: child, 3 g AICAR
Text: A child (height of 165 cm, weight of 55 kg) presents to their primary care physician with a red and itchy rash on their forearm. The rash is in a circular pattern. The physician diagnoses the patient with ringworm. The physician administers a dose of a topical pharmaceutical containing 3 g of AICAR, an agent that activates TORC1 aggregate formation.

Kog1 = Kog1 foci (Kog1 bodies) resolution in WT cells after glucose starvation; type: cell-based, budding yeast; settings: cycloheximide (CHX) alone, without glucose repletion
esophageal candidiasis = test: Patient with esophageal candidiasis treated with oral phenformin (Example 1); type: in vivo, human; settings: person, 200 mg phenformin
Method: The physician notes the presence of white plaques on the patient's tongue. The physician diagnoses esophageal candidiasis. The physician administers an oral pharmaceutical containing 200 mg of phenformin, an agent that activates TORC1 aggregate formation.

TORC1 = test: DNA microarray measurement of TORC1 pathway output (gene expression) with and without rapamycin; type: cell-based, S. cerevisiae; settings: salt stress, 0.4M KCl; hog1Δ versus wild-type strain
Method: Previous studies of TOR pathway signaling in stress have been limited to measuring phosphorylation of a single substrate, Sch9. As a result it was not clear whether stress signals inhibit TORC1 activity directly or simply act on one or two TORC1 targets proteins. To help distinguish between these possibilities, the complete output of TORC1 pathway in osmotic stress was measured using DNA microarrays. To do this, the cellular response was monitored with and without the potent TORC1 inhibitor rapamycin in 0.4M KCl and three control conditions: amino acid starvation, nitrogen starvation and log growth conditions.
In osmotic stress, Hog1/p38, the terminal kinase in the HOG pathway, is known to regulate many aspects of the stress response including transcription, chromatin remodeling, cell cycle check-points, and ion and glycerol channel regulation. […]
(a) DNA microarray data comparing the gene expression program activated by KCl stress and the TORC1 inhibitor rapamycin. […] A phosphorylation-induced shift in the electrophoretic mobility of Sch9-3HA was measured by performing a western blot to a SDS-PAGE gel loaded with extract from cells collected before and after treatment with 0.4M KCl, using an anti-HA antibody. […] The experiment described in (b) was carried out in triplicate in wild-type and hog1A strains and the fraction of protein in the phosphorylated state was quantified using densitometry. […]

NC(=O)c1ncn([C@@H]2O[C@H](CO)[C@@H](O)[C@H]2O)c1N [AICAR]
outcome by four days of treatment (ringworm): the rash is gone

C[C@@H]1C[C@@H]([C@H](O)CC2CC(=O)NC(=O)C2)C(=O)[C@@H](C)C1 [cycloheximide]
disaggregation of Kog1 (Kog1): does not trigger disaggregation of Kog1

[H]/N=C(/N)N/C(=N/[H])NCCc1ccccc1 [phenformin]
signs of improvement after one day of treatment (esophageal candidiasis; one day): absence of white plaques on the tongue and no difficulty swallowing
outcome by two days of treatment (esophageal candidiasis; two days): sore throat is gone

CO[C@H]1C[C@@H]2CC[C@@H](C)[C@@](O)(O2)C(=O)C(=O)N2CCCC[C@H]2C(=O)O[C@H]([C@H](C)C[C@@H]2CC[C@@H](O)[C@H](OC)C2)CC(=O)[C@H](C)/C=C(\C)[C@@H](O)[C@@H](OC)C(=O)[C@H](C)C[C@H](C)/C=C/C=C/C=C/1C [rapamycin]
more repression by rapamycin in hog1Δ than wt (TORC1): 4 fold
